According to ChEMBL document CHEMBL3352676, “Terpenoids from the root bark of Pterolobium macropterum” (J Nat Prod, 2014):
pIC50: −log10 of the molar value. Calls of active or inactive are those of the source. No cut-off for these calls is given here.

What was measured:
Vero [1] = test: Cytotoxicity against african green monkey Vero cells assessed as growth inhibition after 72 hrs by sulforhodamine B assay; settings: Chlorocebus sabaeus
[2] = Cytotoxicity against human KKU-M213 cells assessed as growth inhibition after 72 hrs by sulforhodamine B assay; settings: KKU-M213, 72 h
KKU-M156 = test: Cytotoxicity against human KKU-M156 cells assessed as growth inhibition at > 200 uM after 72 hrs by sulforhodamine B assay
KKU-M139 = test: Cytotoxicity against human KKU-M139 cells assessed as growth inhibition at > 200 uM after 72 hrs by sulforhodamine B assay
[3] = Cytotoxicity against human KKU-M156 cells assessed as growth inhibition after 72 hrs by sulforhodamine B assay; settings: KKU-M156, 72 h
[4] = Cytotoxicity against human KKU-M139 cells assessed as growth inhibition after 72 hrs by sulforhodamine B assay; settings: KKU-M139, 72 h
Vero [5] = test: Cytotoxicity against african green monkey Vero cells assessed as growth inhibition at > 200 uM after 72 hrs by sulforhodamine B assay; settings: Chlorocebus sabaeus
KKU-M213 = test: Cytotoxicity against human KKU-M213 cells assessed as growth inhibition at > 200 uM after 72 hrs by sulforhodamine B assay

For `COC(=O)[C@]1(C)CCC[C@@]2(C)[C@H]1CC[C@H]1[C@@H](C)C3=CC(=O)OC3=C[C@@H]12`, the pIC50 (Vero [1]) was 4.02, the pIC50 [2] was 4.32 and the inhibition (KKU-M156) was “inactive”. The inhibition (KKU-M139) was “inactive”.
In the case of `COC(=O)[C@]1(C)CCC[C@]2(C)c3cc4occc4c(C)c3CC[C@@H]12`, the pIC50 (Vero [1]) was 4.24, the pIC50 [2] was 3.84 and the pIC50 [3] was 4.10. It also gave a pIC50 [4] of 4.15.
In the case of `CC(C)[C@@H]1CC[C@@H](C)[C@@H]2CCC(=O)C=C12`, the pIC50 (Vero [1]) was 3.81, the pIC50 [2] was 4.06 and the pIC50 [3] was 4.05. The pIC50 [4] was 4.15.
For `CC(C)[C@@H]1CC[C@@H](C)[C@@H]2CCC(C=O)=C[C@@]12O`, the pIC50 [2] was 4.05, the inhibition (KKU-M156) was “inactive” and the Activity (Vero [5]) was “Non-toxic”. The inhibition (KKU-M139) was “inactive”.
Compound `COC(=O)[C@]1(C)CCC[C@@]2(C)[C@H]1CC[C@H]1C(=O)c3ccoc3C[C@@H]12` has a pIC50 [2] of 4.46, a pIC50 [3] of 3.83 and a pIC50 [4] of 4.63. The Activity (Vero [5]) was “Non-toxic”.
Work on `COC(=O)[C@]1(C)CCC[C@@]2(C)[C@H]1CC[C@H]1[C@@H](C)C3=CC(=O)O[C@]3(O)C[C@@H]12` yielded a pIC50 (Vero [1]) of 4.23, a pIC50 [2] of 4.36 and a pIC50 [3] of 4.21. For the same compound, the pIC50 [4] was 4.12.
Work on `COC(=O)C1(C(=O)OC)CCC[C@]2(C)c3cc4occc4c(C)c3CC[C@@H]12` yielded a pIC50 (Vero [1]) of 4.18, a pIC50 [2] of 4.35 and a pIC50 [3] of 4.08. It also gave a pIC50 [4] of 4.10.
`COC(=O)[C@]1(C)CC[C@@H](OC(C)=O)[C@]2(C)c3cc4occc4c(C)c3C[C@@H](O)[C@H]21` showed a pIC50 [2] of 4.01, a pIC50 [3] of 3.94 and a pIC50 [4] of 3.81. For the same compound, the Activity (Vero [5]) was “Non-toxic”.
In the case of `CC(C)[C@]1(O)CC[C@@H](C)[C@@H]2CCC(=O)C=C21`, the pIC50 (Vero [1]) was 3.81, the inhibition (KKU-M213) was “inactive” and the pIC50 [3] was 3.86. The pIC50 [4] was 3.83.
For `C[C@H]1C2=CC(=O)O[C@]2(O)C[C@H]2[C@H]1CC[C@@H]1[C@]2(C)CCC[C@@]1(C)C(=O)O` [DIPTERYXIC ACID], the pIC50 (Vero [1]) was 4.01, the pIC50 [2] was 4.16 and the pIC50 [3] was 4.08. It also gave a pIC50 [4] of 4.11.
In the case of `COC(=O)[C@]1(C)CCC[C@@]2(C)[C@H]1CC[C@H]1C(C)=CC(=O)C[C@@H]12`, the pIC50 (Vero [1]) was 4.30, the pIC50 [2] was 4.18 and the inhibition (KKU-M156) was “inactive”. For the same compound, the pIC50 [4] was 3.71.
In the case of `CC1=C2CC3CC[C@@H](C)C2(CC1=O)C3(C)C` (stereo partly specified), the pIC50 [2] was 3.86, the inhibition (KKU-M156) was “inactive” and the Activity (Vero [5]) was “Non-toxic”. For the same compound, the inhibition (KKU-M139) was “inactive”.
With `Cc1c2ccncc2c(C)c2c1[nH]c1ccccc12` [ELLIPTECINE] the pIC50 (Vero [1]) was 4.81, the pIC50 [2] was 5.18 and the pIC50 [3] was 4.42. The pIC50 [4] was 4.74.
Work on `COC(=O)[C@]1(C)CCC[C@]2(C)c3cc4occc4c(C)c3C[C@@H](O)[C@@H]12` yielded a pIC50 [2] of 3.98, a pIC50 [3] of 3.95 and a pIC50 [4] of 3.92. The Activity (Vero [5]) was “Non-toxic”.
